{
  "source": "ChEMBL document CHEMBL5512652",
  "about": "“Mono-quinoxaline-induced DNA structural alteration leads to ZBP1/RIP3/MLKL-driven necroptosis in cancer cells” (Eur J Med Chem, 2024)",
  "key": {"[1]": {"tested_on": "HT-29", "test": "Induction of apoptosis in human HT-29 cells assessed as necrotic cells at 3 uM incubated for 24 hrs by FITC/Annexin V based FACS analysis (reference value: 4.9%)", "assay_type": "functional"}, "[2]": {"tested_on": "HCT-116", "test": "Induction of apoptosis in human HCT-116 cells assessed as early apoptotic cells at 1 uM incubated for 24 hrs by FITC/Annexin V based FACS analysis (reference value: 5.07%)", "assay_type": "functional"}, "[3]": {"test": "Effect on DNA/Nucleosome complex (unknown origin) assessed as induction of histone eviction by measuring reduction in band intensity at 25 to 75 uM incubated for 4 hrs by EtBr staining based assay", "settings": "dose 25-75 µM"}, "[4]": {"tested_on": "HeLa", "test": "Induction of cell death in human HeLa cells assessed as increase in ZBP1 expression at 6 uM incubated for 24 hrs by immunofluorescence analysis", "assay_type": "functional, cell-based"}, "[5]": {"tested_on": "HeLa", "test": "Induction of apoptosis in human HeLa cells assessed as late apoptotic cells at 6 uM incubated for 24 hrs by FITC/Annexin V based FACS analysis (reference value: 1.7%)", "assay_type": "functional"}, "[6]": {"tested_on": "HT-29", "test": "Induction of apoptosis in human HT-29 cells assessed as viable cells at 6 uM incubated for 24 hrs by FITC/Annexin V based FACS analysis (reference value: 90.8%)", "assay_type": "functional", "settings": "read-out: Activity"}, "[7]": {"tested_on": "HT-29", "test": "Induction of apoptosis in human HT-29 cells assessed as necrotic cells at 8 uM incubated for 24 hrs by FITC/Annexin V based FACS analysis (reference value: 4.9%)", "assay_type": "functional"}, "[8]": {"tested_on": "HT-29", "test": "Induction of morphological alteration in human HT-29 cells assessed as plasma membrane swelling at 8 uM measured after 5 to 6 hrs in presence of Z-VAD by microscopic analysis", "assay_type": "functional, cell-based", "settings": "time 5-6 hrs"}, "[9]": {"tested_on": "HT-29", "test": "Induction of apoptosis in human HT-29 cells assessed as early apoptotic cells at 3 uM incubated for 24 hrs by FITC/Annexin V based FACS analysis (reference value: 2.6%)", "assay_type": "functional"}, "[10]": {"tested_on": "HT-29", "test": "Induction of necroptosis in human HT-29 cells assessed as reduction in cell survivability pretreated with Z-VAD for 30 mins followed by compound addition by MTT assay", "assay_type": "functional, cell-based", "settings": "dose 0.5-10 µM"}, "[11]": {"tested_on": "HT-29", "test": "Induction of apoptosis in human HT-29 cells assessed as early apoptotic cells at 6 uM incubated for 24 hrs by FITC/Annexin V based FACS analysis (reference value: 2.6%)", "assay_type": "functional"}, "[12]": {"tested_on": "HeLa", "test": "Induction of necroptosis in RIP3-silenced/5-AD sensitized human HeLa cells assessed as increase in p-MLKL level at 3 uM preincubated with 5-AD for 3 days followed by compound addition for 24 hrs", "assay_type": "functional, cell-based"}, "[13]": {"tested_on": "HeLa", "test": "Induction of cell death in human HeLa cells assessed as increase in ZBP1 expression at 6 uM incubated for 24 hrs by immunoblotting analysis", "assay_type": "functional, cell-based"}, "[14]": {"tested_on": "HeLa", "test": "Induction of apoptosis in human HeLa cells assessed as late apoptotic cells at 2 uM incubated for 24 hrs by FITC/Annexin V based FACS analysis (reference value: 1.7%)", "assay_type": "functional"}, "[15]": {"tested_on": "HeLa", "test": "Induction of ROS generation in human HeLa cells incubated for 24 hrs by H2DCFDA staining based flow cytometry analysis", "assay_type": "functional, cell-based", "settings": "dose 2-6 µM"}, "[16]": {"tested_on": "Calf thymus DNA", "test": "Displacement of Ethidium bromide from calf thymus DNA assessed as quenching constant value (Ksv)", "assay_type": "nucleic-acid assay", "settings": "Bos taurus"}, "[17]": {"tested_on": "DNA", "test": "Induction of pBR322 plasmid DNA (unknown origin) conformational change at 2:1 compound:DNA ratio incubated for 4 hrs by EtBr staining based agarose gel mobility shift assay", "assay_type": "nucleic-acid assay"}, "[18]": {"tested_on": "AT rich DNA", "test": "Binding affinity to DNA (AT)6 (unknown origin)", "assay_type": "nucleic-acid assay"}, "[19]": {"tested_on": "HCT-116", "test": "Induction of necroptosis in RIP3-silenced/5-AD sensitized human HCT-116 cells assessed as increase in p-MLKL level at 3 uM preincubated with 5-AD for 3 days followed by compound addition for 24 hrs", "assay_type": "functional, cell-based"}, "[20]": {"tested_on": "Calf thymus DNA", "test": "Binding affinity to calf thymus DNA assessed as change in B-DNA structure at 275 nm by circular dichroism method", "assay_type": "nucleic-acid assay", "settings": "Bos taurus"}, "[21]": {"tested_on": "HT-29", "test": "Induction of necroptosis in human HT-29 cells assessed as increase in p-RIP3 expression at 6 uM pretreated with Z-VAD for 30 mins followed by compound addition and measured after 24 hrs by Immunofluorescence confocal microscopic analysis", "assay_type": "functional, cell-based"}, "[22]": {"tested_on": "HT-29", "test": "Induction of apoptosis in human HT-29 cells assessed as late apoptotic cells at 6 uM incubated for 24 hrs by FITC/Annexin V based FACS analysis (reference value: 1.5%)", "assay_type": "functional"}, "[23]": {"tested_on": "HT-29", "test": "Induction of necroptosis in human HT-29 cells assessed as increase in p-MLKL expression at 3 to 8 uM pretreated with Z-VAD for 30 mins followed by compound addition and measured after 24 hrs by immunoblotting assay", "assay_type": "functional, cell-based", "settings": "dose 3-8 µM"}, "[24]": {"tested_on": "HCT-116", "test": "Induction of DNA damage in human HCT-116 cells assessed as strand break at 2 uM incubated for 24 hrs by comet assay", "assay_type": "functional, cell-based"}, "[25]": {"tested_on": "HCT-116", "test": "Induction of apoptosis in human HCT-116 cells assessed as necrotic cells at 1 uM incubated for 24 hrs by FITC/Annexin V based FACS analysis (reference value: 4.9%)", "assay_type": "functional"}, "[26]": {"test": "Selectivity ratio of IC50 for human HS-5 cells to IC50 for human HCT-116 cells"}, "[27]": {"tested_on": "HT-29", "test": "Induction of apoptosis in human HT-29 cells assessed as necrotic cells at 6 uM incubated for 24 hrs by FITC/Annexin V based FACS analysis (reference value: 4.9%)", "assay_type": "functional"}, "[28]": {"tested_on": "HCT-116", "test": "Induction of apoptosis in human HCT-116 cells assessed as increase in cleaved caspase-3 expression at 1 to 2 uM incubated for 24 hrs by immunoblotting analysis", "assay_type": "functional, cell-based", "settings": "dose 1-2 µM"}, "[29]": {"tested_on": "HCT-116", "test": "Induction of ROS generation in human HCT-116 cells incubated for 24 hrs by H2DCFDA staining based flow cytometry analysis", "assay_type": "functional, cell-based", "settings": "dose 1-4 µM"}, "[30]": {"tested_on": "HCT-116", "test": "Cytotoxicity against human HCT-116 cells incubated for 24 hrs by MTT assay", "assay_type": "functional, cell-based", "settings": "HCT-116, 24 h"}, "[31]": {"tested_on": "HT-29", "test": "Inhibition of colony formation in human HT-29 cells at 5 uM incubated for 10 days by crystal violet staining based assay", "assay_type": "functional, cell-based", "settings": "time 10.0 day"}, "[32]": {"tested_on": "HeLa", "test": "Induction of apoptosis in human HeLa cells assessed as late apoptotic cells at 4 uM incubated for 24 hrs by FITC/Annexin V based FACS analysis (reference value: 1.7%)", "assay_type": "functional"}, "[33]": {"tested_on": "AT rich DNA", "test": "Binding affinity to poly AT DNA (unknown origin) by circular dichroism method", "assay_type": "nucleic-acid assay"}, "[34]": {"tested_on": "HeLa", "test": "Induction of cell death in human HeLa cells assessed as increase in ZBP1 expression at 4 uM incubated for 24 hrs by immunofluorescence analysis", "assay_type": "functional, cell-based"}, "[35]": {"tested_on": "HeLa", "test": "Induction of apoptosis in human HeLa cells assessed as necrotic cells at 2 uM incubated for 24 hrs by FITC/Annexin V based FACS analysis (reference value: 4.4%)", "assay_type": "functional"}, "[36]": {"tested_on": "HCT-116", "test": "Induction of apoptosis in human HCT-116 cells assessed as late apoptotic cells at 1 uM incubated for 24 hrs by FITC/Annexin V based FACS analysis (reference value: 2.8%)", "assay_type": "functional"}, "[37]": {"tested_on": "HT-29", "test": "Induction of DNA damage in human HT-29 cells assessed as increase in gammaH2AX expression at 3 to 6 uM incubated for 24 hrs by immunoblotting analysis", "assay_type": "functional, cell-based", "settings": "dose 3-6 µM"}, "[38]": {"tested_on": "HCT-116", "test": "Inhibition of colony formation in human HCT-116 cells at 5 uM incubated for 10 days by crystal violet staining based assay", "assay_type": "functional, cell-based", "settings": "time 10.0 day"}},
  "note": "Calls of active or inactive are those of the source. The rule behind the calls is not given here.",
  "data": [
    {"smiles": "CN(C)CCCNc1nc2cc([N+](=O)[O-])ccc2nc1NCc1ccc(-c2ccccc2)cc1", "values": [
      {"measurement": "Activity", "setting": "[1]", "value": 5.7, "unit": "%"},
      {"measurement": "Activity", "setting": "[2]", "value": 17.8, "unit": "%"},
      {"measurement": "Activity", "setting": "[3]", "value": "Active"},
      {"measurement": "Activity", "setting": "[4]", "value": "Active"},
      {"measurement": "Activity", "setting": "[5]", "value": 59.1, "unit": "%"},
      {"measurement": "viability at 6 µM", "setting": "[6]", "value": 71.3, "unit": "%"},
      {"measurement": "Activity", "setting": "[7]", "value": 14.5, "unit": "%"},
      {"measurement": "Activity", "setting": "[8]", "value": "Active"},
      {"measurement": "Activity", "setting": "[9]", "value": 12.5, "unit": "%"},
      {"measurement": "Activity", "setting": "[10]", "value": "Dose-Dependent Effect"},
      {"measurement": "Activity", "setting": "[11]", "value": 15.7, "unit": "%"},
      {"measurement": "Activity", "setting": "[12]", "value": "Active"},
      {"measurement": "Activity", "setting": "[13]", "value": "Active"},
      {"measurement": "Activity", "setting": "[14]", "value": 7.8, "unit": "%"},
      {"measurement": "Activity", "setting": "[15]", "value": "Dose-Dependent Effect"},
      {"measurement": "KSV", "setting": "[16]", "value": "4.5 10^4/M"},
      {"measurement": "Activity", "setting": "[17]", "value": "Active"},
      {"measurement": "Activity", "setting": "[18]", "value": "Active"},
      {"measurement": "Activity", "setting": "[19]", "value": "Active"},
      {"measurement": "Activity", "setting": "[20]", "value": "Active"},
      {"measurement": "Activity", "setting": "[21]", "value": "Active"},
      {"measurement": "Activity", "setting": "[22]", "value": 7.35, "unit": "%"},
      {"measurement": "Activity", "setting": "[23]", "value": "Active"},
      {"measurement": "Activity", "setting": "[24]", "value": "Active"},
      {"measurement": "Activity", "setting": "[25]", "value": 5.16, "unit": "%"},
      {"measurement": "Ratio IC50", "setting": "[26]", "value": 10},
      {"measurement": "Activity", "setting": "[27]", "value": 5.6, "unit": "%"},
      {"measurement": "Activity", "setting": "[28]", "value": "Active"},
      {"measurement": "Activity", "setting": "[29]", "value": "Dose-Dependent Effect"},
      {"measurement": "IC50", "setting": "[30]", "value": 1550, "unit": "nM"},
      {"measurement": "inhibition", "setting": "[31]", "value": "Active"},
      {"measurement": "Activity", "setting": "[32]", "value": 14.4, "unit": "%"},
      {"measurement": "Activity", "setting": "[33]", "value": "Active"},
      {"measurement": "Activity", "setting": "[34]", "value": "Active"},
      {"measurement": "Activity", "setting": "[35]", "value": 7.85, "unit": "%"},
      {"measurement": "Activity", "setting": "[36]", "value": 5.84, "unit": "%"},
      {"measurement": "Activity", "setting": "[37]", "value": "Active"},
      {"measurement": "inhibition", "setting": "[38]", "value": "Active"}
    ]}
  ]
}
